Laboratory results reported in patent US5759836A, “Osteoarthritis-associated inducable isoform of nitric oxide synthetase” (priority 1995, dated 1998).
“Also recorded” adds a separate entry of the source. Where two headings read alike, the source gives them in different places.

Key:
iNOS [1] = test: iNOS expression in stimulated rat chondrosarcomas; assay type: cell-based; conditions: for effect on iNOS in rat chondrosarcomas: LPS/cytokine-stimulated, L-NMMA 500 μM, indomethacin 20 μM; for inhibition of iNOS expression in rat chondrosarcomas: 72 h, added 1 h prior to cytokines
Experimental: NSAIDs were tested in: (FIG. 5A) rat chondrosarcomas stimulated with LPS, and (FIG. 5B) unstimulated OA cartilage (n=3).

iNOS [2] = test: Nitrite accumulation in LPS-stimulated RAW 264.7 murine macrophages (Griess method); assay type: cell-based; conditions: for inhibition at 5 µM: RAW264.7, read-out: Nitrite released, % inhibition, 5 μM (Table 2: 5 μm)
Experimental: Effects of NSAIDs on Nitrite Accumulation. […] The expression and activity of iNOS were monitored by estimation of the stable end-product: nitrites.
concentrations of NSAIDs for 2 h followed by addition of 100 ng/ml of LPS
After 16-18 h of incubation, the medium was used to estimate the
accumulation of nitrite by the Greiss method (Green et al., Anal Biochem.
(§1) The specific activity of iNOS was determined in cellfre
(§2) extracts at a given time period as described. The nitrite and specific
activity data are representative of mean ± SD value, as determined by
student t test, for 10 and 4 independent experiments, respectively. The p
values described are compared with LPSstimulated cells. […]

human iNOS = conditions: crude lysates; cited from earlier work
OA-NOS [3] = test: Sensitivity of OA-NOS to agents (Table 3 comparison)
human chondrocyte iNOS = conditions: cited from earlier work
NOS = conditions: cited from earlier work
iNOS [4] = test: Specific activity of iNOS in cell-free extracts of RAW 264.7 cells exposed to drug during LPS induction; assay type: cell-based, murine
Experimental: Assays for iNOS in Cell-Free Extracts. […] The reaction mixture for iNOS assay (in cell-free extracts) consists of Tris […] (pH 7.8); BSA 1 mg/ml; DTT 1 mM; CaCl2, 2 mM; FAD 10 μM; BH4 10 μM; L-arginine 30 μM; NADPH 1 mM. The assay mixture for cNOS consists of Tris 50 mM (pH 7.8); L-arginine 50 μM; calmodulin 10 μg/ml; BH4 10 μM; CaCl2 2 mM; NADPH 100 μM. RAW 264.7 cells were induced with LPS in the presence and absence of NSAIDs for 16-18 h. […] Cells were re-pelleted at 4° C. and resuspended in Tris buffer (10 mM, pH 7.4) containing 1 mg/ml each chymostatin, antipain, leupeptin and pepstatin, 1 mM DTT and 1 mM PMSF. Cells were lysed in a Polytron PT 1200 homogenizer (Kinematica AG, Switzerland) after 3 cycles of rapid freeze-thawing. The lysate was centrifuged at 16,000 rpm for 60 min at 4° C., and the supernatants were used as cell-free extracts. […] After 20 min the assays were terminated by heating the reaction mixture at 90° C. for 5 min. The precipitates were removed by centrifuging at 15,000 rpm for 20 min. Ten microliters (≈50,000 cpm) of the supernatant was spotted on activated Avicel TLC plates (Analtech, Newark, Del.). The TLC plates were developed in a solvent system consisting of ethanol:water:ammonia (80:16:4). Quantitation of the spot for L-[^3 3H]-citrulline was performed by a Bioscan System 200 Imaging Scanner. A phosphoimager can also be used for such quantification.
as §1, §2

OA-NOS [5] = test: Nitrite release by OA-affected articular cartilage, ex vivo organ culture; assay type: cell-based, human
iNOS [6] = test: In vitro iNOS catalytic activity in cell-free extracts preincubated with drug (L-[3H]-arginine to L-[3H]-citrulline); assay type: biochemical, murine; conditions: for inhibition of iNOS catalytic activity in cell-free extracts (specific activity in in vitro assay): 1 mM
COX = conditions: cited from earlier work
iNOS [7] = test: iNOS protein expression, Western blot, LPS-treated RAW 264.7 cells; assay type: cell-based, murine
Experimental: Western Blot Analysis. Equal amounts of protein (50 μg) estimated by BCA reagent (Pierce, Rockford, Ill.) were loaded onto SDS-PAGE gels and stained to verify the concentrations of various protein fractions by examining the intensities of the protein bands on the gels. Western blot analysis was carried out from the same cell extracts. The Western-blotted membrane was probed with a specific anti-iNOS monoclonal antibody, as specified by Transduction Laboratories (Lexington, Ky.). The blots were developed using the ECL Western blot system (Amersham, Arlington Heights, Ill.). Quantitation of the bands was performed using a densitometer from Molecular Dynamics (Sunnyville, Calif.).
The protein expression data are represented as
ND = not done. NS = not significant.
A Western blot analysis of iNOS protein was carried out in cells treated with […] LPS in the presence and absence of NSAIDs for 16-18 h.

[8] = cited from earlier work; for NO biosynthesis, paw swelling and histopathological changes in ankle joints: rat adjuvant arthritis
rabbit chondrocytes = conditions: cited from earlier work
NF-κB = conditions: cited from earlier work
neutrophil = conditions: data not shown; read-out: ability to inhibit fMet-Leu-Phe-induced neutrophil aggregation (IC50); cited from earlier work
[9] = systemic, rodent; cited from earlier work
iNOS [10] = conditions: cited from earlier work
[11] = Mus musculus, LPS 100 ng/ml, 16-18 h

CC(=O)Nc1ccc(O)cc1 [Acetaminophen, acetaminophen]
effect on iNOS in rat chondrosarcomas (iNOS [1]): no significant effect on iNOS expression | block of nitrite production (iNOS [2]; 60-120 μM, LPS-stimulated): 1±1%

O=C(O)CN(CCN(CC(=O)O)CC(=O)O)CC(=O)O [EDTA, ethylenediaminetetraacetic acid]
human iNOS activity (human iNOS): markedly reduces

C[C@]12CCC(=O)C=C1CC[C@@H]1[C@@H]2[C@@H](O)C[C@@]2(C)[C@H]1CC[C@]2(O)C(=O)CO [Hydrocortisone, hydrocortisone]
sensitivity of OA-NOS (OA-NOS [3]): insensitive; also recorded: not sensitive | effect on iNOS in rat chondrosarcomas (iNOS [1]): no significant effect on iNOS expression | Nitrite released, % inhibition (iNOS [2]; 5 μM (Table 2: 5 μm), LPS 100 ng/ml, 16-18 h, 5 µM): 63.0% | inhibition at 5 µM (iNOS [2]; [11]): > 60% | sensitivity of human chondrocyte iNOS (human chondrocyte iNOS): lack of sensitivity | NOS expression in murine macrophages, endothelial cells and smooth muscles (NOS): abolishes NOS expression

COc1ccc2c(c1)c(CC(=O)O)c(C)n2C(=O)c1ccc(Cl)cc1 [Indomethacin, indomethacin]
inhibition at 5 µM (iNOS [4]; Mus musculus, RAW264.7, 16 h, read-out: Specific activity, % inhibition, 5 μM (Table 2: 5 μm), cell-free extracts, 16 h): 2% | rank order of inhibition of spontaneous nitrite accumulation (OA-NOS [5]): aspirin>indomethacin>sodium salicylate | extent of inhibition of nitrite accumulation (iNOS [2]): not appreciably greater than that seen with 5 μM | inhibition at 5 µM (iNOS [2]; [11]): ~7% | inhibition of iNOS specific activity in in vitro assay (iNOS [6]; 5 μM, 20 min preincubation): 0% | COX inhibition (COX): a potent inhibitor of COX | inhibition at 5 µM (iNOS [7]; Mus musculus, RAW264.7, read-out: inhibition of iNOS protein expression, 5 μm (Table 2)): 0%

CN=C(N)NCCC[C@H](N)C(=O)O [L-NMMA, N^G -monomethyl-L-arginine acetate]
sensitivity of OA-NOS (OA-NOS [3]): blocked; also recorded: shows sensitivity | paw swelling ([8]; partial inhibition of NOS): sufficient to reduce paw swelling | NO biosynthesis, paw swelling and histopathological changes in ankle joints [8]: blocked (in a dose-dependent manner) | effect on nitrite accumulation / NOS expression in OA cartilage (OA-NOS [5]; unstimulated OA cartilage, L-NMMA 500 μM, indomethacin 5 μM): inhibited | inhibition of iNOS expression in rat chondrosarcomas (iNOS [1]): ~ 65% | effect on iNOS in rat chondrosarcomas (iNOS [1]): significant inhibition of iNOS | proteoglycan synthesis (rabbit chondrocytes): restored proteoglycan synthesis

N=C(N)NCCC[C@H](N)C(=O)O [L-arginine]
NO biosynthesis, paw swelling and histopathological changes in ankle joints [8]: competitively reversed the effect of L-NMMA

CC(=O)n1ccnc1 [N-acetylimidazole]
inhibition of iNOS catalytic activity in cell-free extracts (specific activity in in vitro assay) (iNOS [6]; 20 min preincubation): ~ 74% | inhibition of iNOS catalytic activity in cell-free extracts (specific activity in in vitro assay) (iNOS [6]; 20 min preincubation, listed as NAI): 74% | cyclooxygenase and peroxidase activity of COX (COX): inhibits both the cyclooxygenase and the peroxidase activity of COX

O=C([O-])c1ccccc1O.[Na+] [Sodium salicylate, sodium salicylate]
Specific activity of iNOS (iNOS [4]; 3 mM): 304.0 ± 48.1 pmol/min/mg protein | inhibition at 3000 µM (iNOS [4]; Mus musculus, RAW264.7, 16 h, read-out: Specific activity, % inhibition, 3 mM, cell-free extracts, 16 h): 2% | effect on specific activity of iNOS (iNOS [4]; NaSal 3 mM, indomethacin 5 μM (Table 1), therapeutic concentrations): did not inhibit | sensitivity of OA-NOS (OA-NOS [3]): inhibited; also recorded: shows sensitivity | effect on nitrite accumulation / NOS expression in OA cartilage (OA-NOS [5]): blocked iNOS expression in OA cartilage | rank order of inhibition of spontaneous nitrite accumulation (OA-NOS [5]): aspirin>indomethacin>sodium salicylate | inhibition of iNOS expression in rat chondrosarcomas (iNOS [1]): ~ 55% | effect on iNOS in rat chondrosarcomas (iNOS [1]): significant inhibition of iNOS | Nitrite released, Nitrite (iNOS [2]; 3 mM, LPS 100 ng/ml, 16-18 h): 27.1 ± 8.8 µM | IC50 (iNOS [2]; Mus musculus, RAW264.7, read-out: IC50 with respect to nitrite accumulation): 20 mM | inhibition at 3000 µM (iNOS [2]; Mus musculus, RAW264.7, read-out: Nitrite released, % inhibition, 3 mM, LPS 100 ng/ml, 16-18 h): ~7% | inhibition at 20000 µM (iNOS [2]; Mus musculus, RAW264.7, read-out: inhibition of accumulation of nitrites, 20 mM, suprapharmacological): 50% | inhibition at 5000 µM (iNOS [2]; Mus musculus, RAW264.7, read-out: inhibition of nitrite accumulation, 5 mM, suprapharmacological): 15 ± 1% | activation of NF-κB (NF-κB; 5-20 mM, suprapharmacological): interfere in the activation of NF-κB | NF-κB-dependent transcription (NF-κB; aspirin 3 mM, sodium salicylate 5 mM, luciferase reporter): inhibit NF-κB-dependent transcription | NF-κB activation, gel shift assays (NF-κB; same concentrations (aspirin 3 mM; sodium salicylate 5 mM)): no significant effect on NF-κB activation | inhibition of iNOS catalytic activity in cell-free extracts (specific activity in in vitro assay) (iNOS [6]; 20 min preincubation): ~ 1% | effect on the catalytic activity of iNOS (iNOS [6]; indomethacin 5 μM, sodium salicylate 1 mM): no significant differences; also recorded: no significant effect on the catalytic activity of iNOS | COX inhibition (COX): an ineffective inhibitor of COX | IC50 (neutrophil): 3 mM | inhibition of iNOS expression (iNOS [7]; 2-3 mM, variable in 4 independent experiments): 0-35% | effect on iNOS expression at increased concentration (iNOS [7]; 5 and 20 mM): did not cause increased inhibition of iNOS expression | inhibition at 2000 µM (iNOS [7]; Mus musculus, RAW264.7, read-out: inhibition of iNOS expression, 2 mM, Western blot, 16-18 h): ~15% | inhibition at 3000 µM (iNOS [7]; Mus musculus, RAW264.7, read-out: inhibition of iNOS protein expression, 3 mM, approximate, densitometry): ~15%

N=C(N)NN [aminoguanidine]
sensitivity of OA-NOS (OA-NOS [3]): blocked; also recorded: shows sensitivity | effect on nitrite accumulation / NOS expression in OA cartilage (OA-NOS [5]): inhibited

C[C@@H]1C[C@@H]([C@H](O)CC2CC(=O)NC(=O)C2)C(=O)[C@@H](C)C1 [cycloheximide]
sensitivity of OA-NOS (OA-NOS [3]): blocked; also recorded: shows sensitivity | inhibition at 3.5 µM (OA-NOS [5]; Homo sapiens, 3.5 μM, 24 h, read-out: inhibition of nitrite accumulation): > 90% | inhibition at 17.5 µM (OA-NOS [5]; Homo sapiens, 17.5 μM, 24 h, read-out: inhibition of nitrite accumulation): > 90% | block of nitrite accumulation (OA-NOS [5]; cycloheximide 35 μM or PDTC 30 μM, 24 h, cytokine/endotoxin-induced and control cartilage): > 90%

C[C@@H]1C[C@H]2[C@@H]3CCC4=CC(=O)C=C[C@]4(C)[C@@]3(F)[C@@H](O)C[C@]2(C)[C@@]1(O)C(=O)CO [dexamethasone]
sensitivity of human chondrocyte iNOS (human chondrocyte iNOS): lack of sensitivity | NOS expression in murine macrophages, endothelial cells and smooth muscles (NOS): abolishes NOS expression

CC(C)Cc1ccc(C(C)C(=O)O)cc1 (stereo not drawn) [ibuprofen]
effect on iNOS in rat chondrosarcomas (iNOS [1]): no significant effect on iNOS expression

NC(=O)N1C(=O)/C(=C(\O)c2cccs2)c2cc(Cl)ccc21 [tenidap]
inhibition of iNOS expression in rat chondrosarcomas (iNOS [1]): ~ 50% | effect on iNOS in rat chondrosarcomas (iNOS [1]): significant inhibition of iNOS

TGF-β
sensitivity of OA-NOS (OA-NOS [3]): insensitive; also recorded: not sensitive

TGF-β1: cytokine TGF-β1
arthritis morbidity / protection [9]: significant degree of protection | iNOS expression in macrophages (iNOS [10]): suppresses iNOS expression

TNF-α
arthritis morbidity / protection [9]: increase arthritis morbidity
